Some test systems named below: HCT-15 colon; NCI-H226 lung; NCI-H460 lung; OVCAR-3 ovarian; OVCAR-5 ovarian; SNB-19 CNS; SW-620 colon; T-47D breast.
Common to all, as to experiment: growth of human tumour cells (NCI), 48 h

SMILES strings stand for the structures.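 Cultured in 96-well plates, cells were exposed to test compound for 48 hours across five concentrations. The concentration for 50% growth inhibition is given as GI50. The concentration for full growth arrest is given as TGI.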

`CN(C)CCCn1c2nc(=O)[nH]c(=O)c-2nc2cc(Cl)c(Cl)cc21`: the GI50 with HCT-15 colon is 4.03 µM; in the assay on NCI-H226 lung it was 2.58 µM; with NCI-H460 lung it was 14.5 µM; in the assay on OVCAR-3 ovarian it was 0.812 µM; with OVCAR-5 ovarian it was 14.2 µM; with SNB-19 CNS, 12.7 µM. The figures for the GI50 in the assay on SW-620 colon and in the assay with T-47D breast were 2.58 µM and 1.76 µM, respectively. Also, the TGI in the assay with HCT-15 colon was 21.5 µM; with NCI-H226 lung, 9.28 µM; in the assay on NCI-H460 lung it was greater than 100 µM; in the assay with OVCAR-3 ovarian it was 6.13 µM; with OVCAR-5 ovarian it was 30.4 µM; in the assay on SNB-19 CNS, 26 µM. Also, the TGI in the assay on SW-620 colon came to 11.7 µM; in the assay on T-47D breast, 5.86 µM.

As to `COc1ccccc1/C=C/C(=O)/C=C/c1ccccc1OC`, the GI50 was 2.27 µM with HCT-15 colon; 1.71 µM in the assay with NCI-H226 lung; 2.16 µM in the assay on NCI-H460 lung; 1.68 µM in the assay on OVCAR-3 ovarian; 3.16 µM with OVCAR-5 ovarian; 1.84 µM in the assay on SNB-19 CNS. The GI50 in the assay on SW-620 colon was 1.51 µM; in the assay with T-47D breast, 1.47 µM. Further, the TGI is 10.5 µM in the assay on HCT-15 colon; 3.18 µM in the assay with NCI-H226 lung; 5.64 µM in the assay with NCI-H460 lung; 3.68 µM in the assay on OVCAR-3 ovarian; 6.47 µM in the assay on OVCAR-5 ovarian; 4.1 µM in the assay on SNB-19 CNS. Also, the values for the TGI in the assay with SW-620 colon and with T-47D breast were 3.37 µM and 8.4 µM, respectively.

In the case of `Cn1c(=O)c(Oc2ccccc2)cc2cnc(NC3CCOCC3)nc21`, the GI50 in the assay on HCT-15 colon, in the assay on NCI-H226 lung, in the assay on NCI-H460 lung, in the assay on OVCAR-3 ovarian, in the assay on OVCAR-5 ovarian and with SNB-19 CNS was greater than 25 µM in each case. For the same compound, the GI50 with SW-620 colon and with T-47D breast was greater than 25 µM in each case. For the same compound, the TGI in the assay with HCT-15 colon, in the assay with NCI-H226 lung, in the assay on NCI-H460 lung, in the assay on OVCAR-3 ovarian, with OVCAR-5 ovarian and in the assay with SNB-19 CNS was greater than 25 µM in each case. The TGI in the assay on SW-620 colon and with T-47D breast was greater than 25 µM throughout.

For `Fc1ccc2[nH]cc(SSc3c[nH]c4ccc(F)cc34)c2c1`, the GI50 is 2.1 µM in the assay on HCT-15 colon; 2.7 µM in the assay with NCI-H226 lung; 4.44 µM with NCI-H460 lung; 4.52 µM with OVCAR-3 ovarian; 12.7 µM in the assay on OVCAR-5 ovarian; 5.21 µM in the assay with SNB-19 CNS. In addition, the values for the GI50 in the assay on SW-620 colon and in the assay with T-47D breast were 8.22 µM and 2.54 µM, respectively. For the same compound, the TGI with HCT-15 colon was 22 µM; in the assay on NCI-H226 lung, 7.86 µM; in the assay on NCI-H460 lung it was 19.9 µM; in the assay on OVCAR-3 ovarian it was 18.3 µM; in the assay with OVCAR-5 ovarian, 39.9 µM; with SNB-19 CNS, 22.1 µM. Further, the TGI in the assay on SW-620 colon came out at 26 µM; in the assay with T-47D breast it was 20.5 µM.

As for `COc1ccc(/C=C/NC=O)cc1`, the TGI in the assay on HCT-15 colon, in the assay with NCI-H226 lung, in the assay with NCI-H460 lung, in the assay on OVCAR-3 ovarian, with OVCAR-5 ovarian and in the assay on SNB-19 CNS was greater than 100 µM in each case. In addition, the TGI with SW-620 colon and with T-47D breast was greater than 100 µM throughout.

Turning to `COc1cc(/C=C2\C(=O)Nc3cccc(Cl)c32)cc(OC)c1OC`, the GI50 in the assay with HCT-15 colon is greater than 100 µM; in the assay with NCI-H226 lung, greater than 100 µM; in the assay on NCI-H460 lung, greater than 100 µM; in the assay with OVCAR-3 ovarian, greater than 100 µM; with OVCAR-5 ovarian, 46.4 µM; in the assay on SNB-19 CNS it was 60.1 µM. Besides, the GI50 with SW-620 colon and in the assay with T-47D breast was greater than 100 µM each time. Further, the TGI in the assay on HCT-15 colon, in the assay on NCI-H226 lung, with NCI-H460 lung, with OVCAR-3 ovarian, with OVCAR-5 ovarian and in the assay on SNB-19 CNS was greater than 100 µM each time. In addition, the TGI in the assay on SW-620 colon and in the assay on T-47D breast was greater than 100 µM in each case.

Consider `CCOC(=O)c1cc(C(=O)c2cc(OC)c(OC)c(OC)c2)n2ccccc12`, for which the GI50 in the assay on HCT-15 colon was 0.0565 µM; in the assay on NCI-H226 lung, 19.3 µM; in the assay with NCI-H460 lung it was 0.0772 µM; in the assay on OVCAR-3 ovarian it was 0.0334 µM; in the assay on OVCAR-5 ovarian, 0.813 µM; with SNB-19 CNS, 0.206 µM. In addition, the GI50 in the assay with SW-620 colon was 0.0504 µM; in the assay with T-47D breast, 1.14 µM. The TGI is greater than 100 µM with HCT-15 colon; greater than 100 µM in the assay with NCI-H226 lung; greater than 100 µM in the assay on NCI-H460 lung; 4.11 µM with OVCAR-3 ovarian; greater than 100 µM in the assay with OVCAR-5 ovarian; greater than 100 µM in the assay on SNB-19 CNS. Further, the TGI in the assay on SW-620 colon and in the assay on T-47D breast was greater than 100 µM each time.

For the compound `C=CC1=C(C)C2=NC1=CC1=NC(=CC3=C(C)C4=C(O)C(C(=O)OC)C(=C5NC(=C2)C(C)C5CCC(=O)OC)C4=N3)C(CC)=C1C` (stereo not drawn), the TGI in the assay on HCT-15 colon, with NCI-H226 lung, in the assay on NCI-H460 lung, in the assay on OVCAR-3 ovarian, in the assay with OVCAR-5 ovarian and with SNB-19 CNS was greater than 100 µM throughout. Moreover, the TGI in the assay on SW-620 colon and in the assay with T-47D breast was greater than 100 µM each time.

Turning to `C=C1C(=O)O[C@H]2[C@H]1CC/C(Cn1cc(-c3cc(C)c(C)cc3C)nn1)=C\CC[C@@]1(C)O[C@@H]21`, the GI50 is 0.201 µM in the assay with HCT-15 colon; 1.46 µM with NCI-H226 lung; 3.16 µM in the assay on NCI-H460 lung; 1.03 µM in the assay on OVCAR-3 ovarian; 1.74 µM in the assay on OVCAR-5 ovarian; 3.9 µM with SNB-19 CNS. The figures for the GI50 with SW-620 colon and with T-47D breast were 0.424 µM and 0.539 µM, respectively. Moreover, the TGI with HCT-15 colon came out at 0.548 µM; in the assay with NCI-H226 lung, 3.07 µM; in the assay on NCI-H460 lung, 10.8 µM; in the assay with OVCAR-3 ovarian, 2.19 µM; with OVCAR-5 ovarian, 4.38 µM; in the assay on SNB-19 CNS, 15.9 µM. The figures for the TGI in the assay on SW-620 colon and in the assay with T-47D breast were 1.54 µM and 2.45 µM, respectively.

Regarding `COc1ccccc1-c1cc(=O)c2ccc(OC)c(OC)c2o1`, the TGI in the assay on HCT-15 colon, with NCI-H226 lung, with NCI-H460 lung, in the assay with OVCAR-3 ovarian, with OVCAR-5 ovarian and with SNB-19 CNS was greater than 100 µM throughout. The TGI in the assay with SW-620 colon was greater than 100 µM; in the assay with T-47D breast, 75.5 µM.

With `NC1=Nc2cc(OCCCN3Cc4ccccc4C3)c(OCC3CC3)cc2C12CCCC2`, the GI50 in the assay on HCT-15 colon is 2.1 µM; with NCI-H226 lung it was 3.72 µM; in the assay on NCI-H460 lung, 2.02 µM; in the assay on OVCAR-3 ovarian it was 2.69 µM; in the assay on OVCAR-5 ovarian, 5.99 µM; in the assay with SNB-19 CNS, 4.53 µM. Further, the GI50 is 2.07 µM in the assay on SW-620 colon and 1.82 µM in the assay on T-47D breast. For the same compound, the TGI in the assay with HCT-15 colon stood at 6.51 µM; in the assay on NCI-H226 lung it was 21 µM; in the assay with NCI-H460 lung, 4.67 µM; in the assay on OVCAR-3 ovarian it was 8.68 µM; in the assay on OVCAR-5 ovarian, 19.1 µM; with SNB-19 CNS, 16.4 µM. Moreover, the TGI with SW-620 colon stood at 4.88 µM; with T-47D breast, 4.54 µM.

In the case of `CC(C)Nc1ncc2cc(Oc3ccc(F)cc3F)c(=O)n(C)c2n1`, the GI50 in the assay on HCT-15 colon, with NCI-H226 lung, with NCI-H460 lung, in the assay with OVCAR-3 ovarian, in the assay with OVCAR-5 ovarian and in the assay with SNB-19 CNS was greater than 25 µM each time. Besides, the GI50 in the assay on SW-620 colon and with T-47D breast was greater than 25 µM each time. Besides, the TGI in the assay with HCT-15 colon, with NCI-H226 lung, in the assay on NCI-H460 lung, in the assay on OVCAR-3 ovarian, in the assay with OVCAR-5 ovarian and with SNB-19 CNS was greater than 25 µM each time. For the same compound, the TGI with SW-620 colon and in the assay with T-47D breast was greater than 25 µM each time.

As for `CCSc1nnc(-c2ccc3ccccc3c2O)n1-c1ccc(Cl)cc1`, the GI50 with HCT-15 colon is 3.13 µM; in the assay on NCI-H226 lung, 7.46 µM; with NCI-H460 lung, 3.27 µM; in the assay on OVCAR-3 ovarian it was 29.4 µM; in the assay on OVCAR-5 ovarian, greater than 100 µM; in the assay with SNB-19 CNS, 5.84 µM. The GI50 with SW-620 colon was 4.28 µM; with T-47D breast it was 8.96 µM. The TGI in the assay with HCT-15 colon, in the assay with NCI-H226 lung, with NCI-H460 lung, in the assay with OVCAR-3 ovarian, in the assay on OVCAR-5 ovarian and in the assay on SNB-19 CNS was greater than 100 µM in each case. Moreover, the TGI with SW-620 colon and in the assay on T-47D breast was greater than 100 µM each time.

In the case of `Nc1nc(-c2cccc([N+](=O)[O-])c2)cc(-c2cc(-c3cccc([N+](=O)[O-])c3)nc(N)n2)n1`, the TGI in the assay on HCT-15 colon, in the assay with NCI-H226 lung, with NCI-H460 lung, with OVCAR-3 ovarian, in the assay on OVCAR-5 ovarian and in the assay on SNB-19 CNS was greater than 100 µM each time. Moreover, the TGI in the assay with SW-620 colon and in the assay on T-47D breast was greater than 100 µM each time.

With `COc1ccc(-c2csc(NC(=O)c3cc(O)c(O)c(O)c3)n2)cc1`, the GI50 with HCT-15 colon is 6.63 µM; in the assay with NCI-H226 lung it was 9.59 µM; in the assay with NCI-H460 lung it was 7.5 µM; with OVCAR-3 ovarian, 12.2 µM; in the assay on OVCAR-5 ovarian, greater than 33.3 µM; with SNB-19 CNS it was 6.02 µM. The GI50 was 5.69 µM with SW-620 colon and 5.19 µM in the assay on T-47D breast. In addition, the TGI with HCT-15 colon, with NCI-H226 lung, in the assay on NCI-H460 lung, in the assay on OVCAR-3 ovarian, in the assay on OVCAR-5 ovarian and in the assay on SNB-19 CNS was greater than 33.3 µM throughout. Also, the TGI is greater than 33.3 µM with SW-620 colon and 22.6 µM in the assay on T-47D breast.

The values above are taken from PubChem BioAssay (NCI).
